# No end group written: not given here.
# Columns and labels:
# [1] = tested on: LLC cells (Lewis lung carcinoma-derived cells); experiment: Cell fusion activity in LLC cells; format: cell-based; conditions: LLC (printed LCC) cells, peptide 1 μg/mL, cultured 24-36 hours, nuclear staining
# Procedure: (§1) In this Example, the peptide 1 obtained in Example 1 was added to RFL cells (rat lung fetal cells) or LLC cells (Lewis lung carcinoma-derived cells), and the cell fusion activity of the peptide was examined.
# (§2) RFL cells or LLC cells (2×10^6 cells) were suspended in 6 mL of RPMI-1640 medium (Wako, 189-02025) supplemented with 5% FBS (Biosera, Cat No. 015BS493) and 8×10^4 cells/0.25 mL were dispensed to each well of 24 well plate (Iwaki, 2820-024)), and cultured. The medium was removed, and a fresh medium (20 μL) and peptide 1 (1 μg/mL) were dispensed, and the cells were further cultured for 24-36 hours. After the culture was completed, the cells were fixed with methanol (Wako), and nuclear-stained with Gimza staining solution (Muto Kagaku 15003) for microscopic examination.
# RM-4 cells [2] = experiment: Apoptosis induction in RM-4 cells (Caspase-3/7 and Annexin V, IncuCyte S3); format: cell-based, rat; conditions: 0.06 μg/mL peptide
# Procedure: In this Example, the apoptosis ability of peptide 1 was examined using the RM-4 cells. An activity of Caspase-3/7 and an activity of AnnexinV (red fluorescence) which are indications of apoptosis, was measured using IncuCyte S3 live cell analysis system (Essen BioScience).
# The activity of Caspase-3/7 activity is measured using an inert non-fluorescent (DEVD) substrate that can penetrate the cell membrane. An activated Caspase-3/7 cleaves the substrate, and thereby a DNA-bound green fluorescent label is released. The activity of Caspase-3/7 is measured by the intensity of green fluorescence.
# The activity of Annexin V is measured using a photostable CF dye. CF dye emits a red fluorescent signal when bound to phosphatidylserine (PS). The activity of Annexin V is measured by the red fluorescent signal.
# RM-4 cells were seeded on 96-well plates and 0.06 μg/mL of peptide 1 was added thereto. Caspase-3/7 Green Reagent (Unit size: 20 ul, 5 mM/vial) was diluted 500-fold with Ham's F-12K and added thereto. Then, Annexin V Red Reagent (Unit size: 100 tests/vial) was diluted 100-fold with Ham's F-12K and added thereto. They were measured using the IncuCyte S3 live cell analysis system, by continuously scanning every hour for 3 days with an objective lens of magnification of 10 times and 4 fields of view. As a control, RM-4 cells which were not treated with peptide 1, were used.
# [3] = tested on: RFL cells (rat lung fetal cells); experiment: Cell fusion activity in RFL cells; format: cell-based; conditions: peptide 9 vs peptide 1, peptide 1 vs peptide 10
# [4] = tested on: RFL cells (rat lung fetal cells); experiment: Cell fusion activity in RFL cells; format: cell-based; conditions: peptide 1 μg/mL, cultured 24-36 hours, nuclear staining
# Procedure: as §1, §2
# RM-4 cells [5] = experiment: Cell fusion activity in RM-4 cells; format: cell-based, rat; conditions: peptide 1 μg/mL, cultured 24-36 hours, nuclear staining
# Procedure: as §2
# In this Example, the cell fusion activity of the peptide 6 was examined. The procedure of Example 2 was repeated, except that the peptide 6 was used instead of the peptide 1, and the RM-4 cells only used instead of the LCC cells. In connection with this, RM-4 cells are cancer cells in which RFL cells were infected with Moloney murine leukemia virus and selected.
# [6] = tested on: A549 cells (human alveolar epithelial adenocarcinoma cells); experiment: Anticancer effect on A549 cells transplanted into nude mice; format: in vivo; conditions: 25 mg/kg intravenous
# Procedure: In this example, the anticancer effect of peptide 6 on A549 cells (human alveolar epithelial adenocarcinoma cells) was examined in vivo.
# CAnN.Cg-Foxn1nu/CrlCrlj nude mice were divided into groups of 6 animals each. A549 cells suspended in PBS at a concentration of 4×10^6 cells/mL were transplanted subcutaneously to the right ventral part thereof. The peptide 6 was administered intravenously from the tail vein at a dose of 25 mg/kg (peptide 6 group) on 14, 17, 21, 24, 28, 31, 35, and 38 days later after tumor transplantation. Control group was administered PBS only.
# Tumor volume and body weight were measured every 3 or 4 days, and the tumor was resected on 38 days after tumor transplantation (on […] after the start of peptide administration). The tumor volume was calculated from the formula “estimated tumor volume=(minor axis)^2×(major axis)÷2” by measuring the minor axis and major axis with a caliper. […] 5 mice were evaluated.
Substance,"cell fusion activity (fusion cells with multiple nuclei, microscopy) [4]",other results
CH3-Pro-Leu-Val-Ser-Thr-Gln-Thr-Ala-Ile-Ala (Me-PLVSTQTAIA) [peptide 1],cells are fused and fusion cells with multiple nuclei were found,"cell fusion activity (fusion cells with multiple nuclei, microscopy) [1]: cells are fused and fusion cells with multiple nuclei were found; apoptosis induction (fluorescence micrographs) (RM-4 cells [2]; after 18 and 78 hours): induced apoptosis in RM-4 cells; activity of Annexin V (red fluorescence) (RM-4 cells [2]; scanned every hour for 3 days): increased sharply between 10 and 20 hours, and then gradually increased; activity of Caspase-3/7 (green fluorescence) (RM-4 cells [2]; scanned every hour for 3 days): increased sharply between 10 and 20 hours, and then gradually increased; cell fusion activity compared with another peptide [3]: seemed to be stronger"
CH3-Pro-Ile-Val-Ser-Gln-Thr-Thr-Ala-Ile-Ala (Me-PIVSQTTAIA) [peptide 7],cells are fused and fusion cells with multiple nuclei were found,–
CH3-Pro-Leu-Val-Ser-Gln-Thr-Thr-Ala-Leu-Ala (Me-PLVSQTTALA) [peptide 4],cells are fused and fusion cells with multiple nuclei were found,–
CH3-Pro-Leu-Val-Ser-Thr-Gln-Thr-Ala-Ile-Ala-Thr-Ala (Me-PLVSTQTAIATA) [peptide 9],cells are fused and fusion cells with multiple nuclei were found,cell fusion activity compared with another peptide [3]: superior to peptide 1
PLVSTQTAIA [peptide 10],cells are fused and fusion cells with multiple nuclei were found,–
CH3-Pro-Leu-Val-Ser-Gln-Thr-Thr-Ala-Ile-Ala (Me-PLVSQTTAIA) [peptide 3],cells are fused and fusion cells with multiple nuclei were found,–
CH3-Pro-Leu-Val-Ser-Thr-Gln-Thr-Ala-Leu-Ala (Me-PLVSTQTALA) [peptide 2],cells are fused and fusion cells with multiple nuclei were found,–
CH3-Pro-Ile-Val-Ser-Gln-Thr-Thr-Ala-Leu-Ala (Me-PIVSQTTALA) [peptide 8],cells are fused and fusion cells with multiple nuclei were found,"cell fusion activity (fusion cells with multiple nuclei, microscopy) [1]: cells are fused and fusion cells with multiple nuclei were found"
CH3-Pro-Ile-Val-Ser-Thr-Gln-Thr-Ala-Ile-Ala (Me-PIVSTQTAIA) [peptide 5],cells are fused and fusion cells with multiple nuclei were found,–
CH3-Pro-Ile-Val-Ser-Thr-Gln-Thr-Ala-Leu-Ala (Me-PIVSTQTALA) [peptide 6],cells are fused and fusion cells with multiple nuclei were found,"cell fusion activity (fusion cells with multiple nuclei, microscopy) (RM-4 cells [5]): cells are fused and fusion cells with multiple nuclei were found; tumor volume ([6]; A549 subcutaneous in nude mice, 8 administrations, 28 days): tumor volumes were reduced; histology of HE-stained excised tumor ([6]; A549 tumor resected 38 days after transplantation): the inside of the tumor was necrotic"

# — patent publication US12679866B2, “Peptide, and cell fusion agent and pharmaceutical composition for cancer therapy containing said peptide” (priority 2019, dated 2026)
